Values of other authors in patent publication US20250325518A1, “USE OF A COMBINATION OF SACUBITRIL AND VALSARTAN” (Novartis AG, priority 2016, published 2025).

Tests used:
[1] = system: patients 8 months to 14 years with HF due to congenital heart disease or cardiomyopathy; details: pediatric HF patients 8 months to 14 years; placebo-controlled
[2] = system: adult patients with HF with reduced ejection fraction (HFrEF); details: LCZ696 vs enalapril

For `COc1ccccc1OCCNCC(O)COc1cccc2[nH]c3ccccc3c12` (stereo not shown) [carvedilol], the “composite measure of HF outcomes (worsening, improved or unchanged), primary endpoint” value [1] is given as “did not meet its composite primary endpoint”.
In the case of “trisodium [3-((1S,3R)-1-biphenyl-4-ylmethyl-3-ethoxycarbonyl-1-butylcarbamoyl)propionate-(S)-3′-methyl-2′-(pentanoyl{2″-(tetrazol-5-ylate)biphenyl-4′-ylmethyl}amino)butyrate] hemipentahydrate [LCZ696]”, the “relative risk reduction (RRR), time to first occurrence of composite endpoint of CV death or HF hospitalization” value ([2]; N=8442, p=0.0000002) is given as 20%, the “relative risk reduction (RRR), time to CV death” value ([2]; p=0.00004) is given as 20% and the “relative risk reduction (RRR), time to first HF hospitalization” value ([2]; p=0.00004) is given as 21%.
